Data from ChEMBL document CHEMBL5050861 (2021).
≈ marks a conversion by molar mass, not a printed value.

Tests used:
[1] = Stability of compound in rat microsomes assessed as half-life; assay type: ADME, Microsome
[2] = Inhibition of recombinant mouse GALK1 using ATP as substrate incubated for 1 hr and measured by Kinase-Glo assay
[3] = tested on: Fibroblast; experiment: Inhibition of human GALK1 K252A/E253A double mutant in human skin fibroblasts at 10 uM assessed as reduction in Gal-1P accumulation; assay type: cell-based
[4] = Inhibition of human GALK1 K252A/E253A double mutant
[5] = Kinetic aqueous solubility of the compound; assay type: physicochemical; conditions: buffer; read-out: Kinetic_solubility
[6] = biological target: Galactokinase (Homo sapiens, UniProt P51570); experiment: Inhibition of recombinant human GALK1 using ATP as substrate incubated for 1 hr and measured by Kinase-Glo assay
[7] = Permeability of compound by PAMPA assay; assay type: ADME; conditions: read-out: permeability
[8] = Binding affinity towards human GALK1 K252A/E253A double mutant measured by surface plasmon resonance (SPR) assay
[9] = species: Homo sapiens; experiment: Inhibition of human GALK1 K252A/E253A double mutant relative to control; parameters: concentration or dose not given beside the values; conditions: concentration not given here

Chain of Galactokinase (P51570 whole entry): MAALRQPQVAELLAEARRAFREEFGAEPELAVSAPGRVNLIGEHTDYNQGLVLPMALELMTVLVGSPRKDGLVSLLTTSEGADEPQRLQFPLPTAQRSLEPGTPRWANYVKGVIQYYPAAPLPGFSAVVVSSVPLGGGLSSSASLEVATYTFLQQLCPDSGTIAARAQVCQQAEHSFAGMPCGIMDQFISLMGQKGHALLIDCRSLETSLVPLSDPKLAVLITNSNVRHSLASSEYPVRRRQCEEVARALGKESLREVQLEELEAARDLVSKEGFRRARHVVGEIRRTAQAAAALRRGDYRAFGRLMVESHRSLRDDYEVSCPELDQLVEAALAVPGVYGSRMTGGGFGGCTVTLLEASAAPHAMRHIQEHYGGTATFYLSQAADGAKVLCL

Row | SMILES | half-life [1] | IC50 ([2]; read-out: IC50) | inhibition [3] | IC50 ([4]; read-out: IC50) | solubility kinetic [5] | IC50 [6] | IC50 [2] | IC50 ([6]; read-out: IC50) | Papp [7] | Kd [8] | inhibition [9] | IC50 [4]
1 | CCn1cc(CNC(=O)C2=C(C)NC(Nc3nc4ccc(F)c(N)c4o3)=NC2c2ccc(C)cc2Cl)cn1 (racemic) | 14.1 min | 0.61 µM | 70% | 0.022 µM | < 1 µg/mL |  |  |  |  |  |  | 
2 | CCOC(=O)C1=C(C)NC(Nc2nc3ccccc3o2)=NC1c1ccccc1Cl (stereo not drawn) | 19.3 min | 13.7 µM |  |  | < 1 µg/mL | Not Active |  |  |  |  |  | 
3 | CCOC(=O)C1=C(C(C)C)NC(Nc2nc3ccccc3o2)=NC1c1ccccc1Cl (stereo not drawn) | 5.75 min |  |  |  | < 1 µg/mL | Not Active | Not Active |  |  |  |  | 
4 | CC1=C(C(=O)Nc2cc(C(=O)O)ccn2)[C@H](c2ccccc2Cl)N=C(Nc2nc3cccc(N)c3o2)N1 |  | 1.72 µM |  |  |  |  |  | 0.086 µM |  |  |  | 
5 | CC1=C(C(=O)N(C)c2ccccc2)C(c2ccccc2Cl)N=C(Nc2nc3ccccc3o2)N1 (stereo not drawn) | 1.18 min |  |  |  | < 1 µg/mL | Not Active | Not Active |  |  |  |  | 
6 | CC1=C(C(=O)Nc2ccc(Cl)cc2)C(c2ccccc2Cl)N=C(Nc2nc3ccccc3o2)N1 (stereo not drawn) | > 30 min | 7.69 µM |  |  | < 1 µg/mL | Not Active |  |  | 2 ×10⁻⁶ cm/s |  |  | 
7 | CC1=C(C(=O)Nc2nncs2)C2(Cc3ccccc32)N=C(Nc2nc3ccccc3o2)N1 (stereo not drawn) | > 30 min |  |  |  | 50.9 µg/mL (≈ 115 µM) | Not Active | Not Active |  |  |  |  | 
8 | CC1=C(C(=O)Nc2cccc(Cl)c2)C(c2ccccc2Cl)N=C(Nc2nc3ccccc3o2)N1 (stereo not drawn) | > 30 min |  |  |  | < 1 µg/mL | Not Active | Not Active |  | < 9.2 ×10⁻⁶ cm/s |  |  | 
9 | CC1=C(C(=O)Nc2cc(C(=O)O)ccn2)C(c2ccccc2Cl)N=C(Nc2nc3cccc(N)c3o2)N1 (racemic) | > 30 min | 3.43 µM |  | 0.077 µM | > 76 µg/mL |  |  |  |  | 0.012 µM | 100% | 
10 | CCn1cc(C(C)NC(=O)C2=C(C)NC(Nc3nc4cccc(N)c4o3)=NC2c2ccc(C)cc2Cl)cn1 (stereo not drawn) | 17.9 min | 1.09 µM |  |  | < 1 µg/mL |  |  | 0.05 µM | 333 ×10⁻⁶ cm/s |  |  | 
11 | CC1=C(C(=O)Nc2cccc(C(=O)O)c2)C(c2ccccc2Cl)N=C(Nc2nc3ccccc3o2)N1 (stereo not drawn) | > 30 min | 6.11 µM |  | 3.1 µM | 59.1 µg/mL (≈ 118 µM) |  |  |  | < 1 ×10⁻⁶ cm/s |  | 96% | 
12 | COCC1=C(C(=O)Nc2nncs2)C(c2ccccc2Cl)N=C(Nc2nc3ccccc3o2)N1 (stereo not drawn) | > 30 min | 19.3 µM |  |  | < 1 µg/mL |  |  | 13.7 µM |  |  |  | 
13 | CC1=C(C(=O)NCc2nc3ccccc3n2C)C(c2ccccc2Cl)N=C(Nc2nc3ccccc3o2)N1 (stereo not drawn) | 4.52 min | 13.7 µM |  |  | < 1 µg/mL |  |  |  | < 10 ×10⁻⁶ cm/s |  | 48% | Not Active
14 | CC1=C(C(=O)NCc2ccccc2Cl)C(c2ccccc2Cl)N=C(Nc2nc3ccccc3o2)N1 (stereo not drawn) | 4.22 min |  |  |  | < 1 µg/mL | Not Active | Not Active |  |  |  |  | 
15 | CC1=C(C(=O)NCc2cn(C)cn2)[C@@H](c2ccccc2Cl)N=C(Nc2nc3ccccc3o2)N1 | 8.73 min |  |  |  | 40.5 µg/mL (≈ 85.1 µM) | Not Active | Not Active |  |  |  |  | 
16 | COC(=O)c1ccnc(NC(=O)C2=C(C)NC(Nc3nc4cccc(N)c4o3)=NC2c2ccc(C)cc2Cl)c1 (stereo not drawn) | 25.3 min | 7.08 µM |  |  | < 1 µg/mL |  |  | 2.24 µM |  |  |  | 
17 | CC1=C(C(=O)Nc2cc(C(=O)O)ccn2)C(c2ccccc2Cl)N=C(Nc2nc3c(F)cccc3o2)N1 (stereo not drawn) | > 30 min | 21.7 µM |  | 3.1 µM | < 10000 µg/mL |  |  |  | > 100 ×10⁻⁶ cm/s |  | 94% | 
18 | COC(=O)C1=C(C(F)(F)F)NC(Nc2nc3ccccc3o2)=NC1c1ccccc1Cl (stereo not drawn) | 10.5 min |  |  |  | 2.65 µg/mL (≈ 5.88 µM) | Not Active | Not Active |  |  |  |  | 
19 | CC1=C(C(=O)Nc2cc(C(=O)O)ccn2)C(c2ccccc2Cl)N=C(Nc2nc3cc(C)ccc3o2)N1 (stereo not drawn) | > 30 min | 3.06 µM |  | 0.611 µM | < 1 µg/mL |  |  |  | < 1 ×10⁻⁶ cm/s |  | 100% | 
20 | CC1=C(C(=O)Nc2cc(C(=O)O)ccn2)C(c2ccccc2Cl)N=C(Nc2nc3cccc(F)c3o2)N1 (stereo not drawn) | > 30 min | 8.63 µM |  | 1 µM | > 77 µg/mL |  |  |  | < 1 ×10⁻⁶ cm/s |  | 100% | 
21 | CC1=C(C(=O)Nc2cc(C(=O)O)ccn2)C(c2ccccc2Cl)N=C(Nc2nc3ccc(F)cc3o2)N1 (racemic) | > 30 min | 4.32 µM |  | 0.26 µM | 46.1 µg/mL (≈ 88.5 µM) |  |  |  |  | 0.023 µM | 100% | 

Row | SMILES | half-life [1] | IC50 ([2]; read-out: IC50) | inhibition [3] | IC50 ([4]; read-out: IC50) | solubility kinetic [5] | IC50 [6] | IC50 [2] | IC50 ([6]; read-out: IC50) | Papp [7] | Kd [8] | inhibition [9] | IC50 [4]
22 | CC1=C(C(=O)Nc2cccc(Br)c2)C(c2ccccc2Cl)N=C(Nc2nc3ccccc3o2)N1 (stereo not drawn) | > 30 min |  |  |  | < 1 µg/mL | Not Active | Not Active |  | < 1.8 ×10⁻⁶ cm/s |  |  | 
23 | CC1=C(C(=O)NCc2ccc(Cl)cc2)C(c2ccccc2Cl)N=C(Nc2nc3ccccc3o2)N1 (stereo not drawn) | 11.9 min |  |  |  | < 1 µg/mL | Not Active | Not Active |  |  |  |  | 
24 | CCOC(=O)c1ccc(NC(=O)C2=C(C)NC(Nc3nc4ccccc4o3)=NC2c2ccccc2Cl)cc1 (stereo not drawn) | > 30 min |  |  |  | < 1 µg/mL |  |  | 3.85 µM | 8.8 ×10⁻⁶ cm/s |  |  | 
25 | COc1ccc2oc(NC3=NC(c4ccccc4Cl)C(C(=O)Nc4nnc(-c5cccnc5)s4)=C(C)N3)nc2c1 (stereo not drawn) | > 30 min |  |  |  | < 1 µg/mL | Not Active | Not Active |  | < 19.1 ×10⁻⁶ cm/s |  |  | 
26 | CC1=C(C(=O)Nc2cc(C(=O)O)ccn2)C(c2ccccc2Cl)N=C(Nc2nc3ccc(C)cc3o2)N1 (stereo not drawn) | > 30 min | 17.2 µM |  | 6.9 µM | 34.4 µg/mL (≈ 66.6 µM) |  |  |  | < 1 ×10⁻⁶ cm/s |  | 100% | 
27 | CC1=C(C(=O)Nc2cc(C(=O)O)ccn2)C(c2ccccc2Br)N=C(Nc2nc3ccc(F)cc3o2)N1 (stereo not drawn) | > 30 min | 3.85 µM |  | 0.235 µM | 36 µg/mL (≈ 63.7 µM) |  |  |  | < 10 ×10⁻⁶ cm/s |  | 100% | 
28 | CC1=C(C(=O)Nc2cc(C(=O)O)ccn2)C(c2cccc(C(F)(F)F)c2)N=C(Nc2nc3ccc(F)cc3o2)N1 (stereo not drawn) | > 30 min |  |  | > 15 µM | 60.1 µg/mL (≈ 108 µM) |  | Not Active |  | < 1 ×10⁻⁶ cm/s |  | 90% | 
29 | COc1cccc(C2N=C(Nc3nc4ccc(F)cc4o3)NC(C)=C2C(=O)Nc2cc(C(=O)O)ccn2)c1Cl (stereo not drawn) | > 30 min | 19.3 µM |  | 5.4 µM | > 81 µg/mL |  |  |  | < 1 ×10⁻⁶ cm/s |  | 100% | 
30 | CC1=C(C(=O)Nc2nnc(-c3cccnc3)s2)C(c2ccccc2Cl)N=C(Nc2nc3ccc(C)cc3o2)N1 (stereo not drawn) | > 30 min |  |  |  | < 1 µg/mL | Not Active | Not Active |  | < 2.9 ×10⁻⁶ cm/s |  |  | 
31 | CC1=C(C(=O)Nc2cc(C(=O)O)ccn2)C(c2ccccc2Cl)N=C(Nc2nc3c(C)cccc3o2)N1 (stereo not drawn) | > 30 min | 17.2 µM |  | 5.5 µM | 3.5 µg/mL (≈ 6.77 µM) |  |  |  | < 1.3 ×10⁻⁶ cm/s |  | 100% | 
32 | CC1=C(C(=O)Nc2cc(C(=O)O)ccn2)C(c2ccccc2Cl)N=C(Nc2nc3cc(F)ccc3o2)N1 (stereo not drawn) | < 10 min | 17.2 µM |  | 3.6 µM | < 10000 µg/mL |  |  |  | < 10 ×10⁻⁶ cm/s |  | 100% | 
33 | CC1=C(C(=O)Nc2cc(C(=O)O)ccn2)C(c2ccccc2Cl)N=C(Nc2nc3cc(Cl)ccc3o2)N1 (stereo not drawn) | > 30 min | 6.11 µM |  | 1.7 µM | 35.2 µg/mL (≈ 65.5 µM) |  |  |  | < 1 ×10⁻⁶ cm/s |  | 100% | 
34 | COC(=O)c1ccnc(NC(=O)C2=C(C)NC(Nc3nc4ccccc4o3)=N[C@@H]2c2ccccc2Cl)c1 | 25.6 min |  |  |  | < 1 µg/mL | Not Active | Not Active |  |  |  |  | 
35 | CC1=C(C(=O)Nc2ccccc2)C(c2ccccc2Cl)N=C(Nc2nc3ccccc3o2)N1 (stereo not drawn) | 24 min | 13.7 µM |  | 0.97 µM | < 1 µg/mL |  |  |  | < 10 ×10⁻⁶ cm/s |  | 57% | 
36 | COC(=O)c1ccccc1NC(=O)C1=C(C)NC(Nc2nc3ccccc3o2)=NC1c1ccccc1Cl (stereo not drawn) |  |  |  |  |  | Not Active | Not Active |  |  |  |  | 
37 | CC1=C(C(=O)Nc2cc(C(=O)O)ccn2)C(c2ccccc2Cl)N=C(Nc2nc3cccc(C(F)(F)F)c3o2)N1 (stereo not drawn) | > 30 min | 48.5 µM |  | > 15 µM | 61.1 µg/mL (≈ 107 µM) |  |  |  | < 1 ×10⁻⁶ cm/s |  | 100% | 
38 | CC1=C(C(=O)Nc2cc(C(=O)O)ccn2)C(c2cccc(S(N)(=O)=O)c2)N=C(Nc2nc3ccc(F)cc3o2)N1 (stereo not drawn) | > 30 min | 38.5 µM |  | > 15 µM | > 84 µg/mL |  |  |  | < 10 ×10⁻⁶ cm/s |  | 75% | 
39 | CC1=C(C(=O)Nc2cc(C(=O)O)ccn2)C(c2ccccc2Cl)N=C(Nc2nc3cccc(OC(F)(F)F)c3o2)N1 (stereo not drawn) | > 30 min |  |  | > 15 µM | 47.8 µg/mL (≈ 81.4 µM) | Not Active | Not Active |  | < 10 ×10⁻⁶ cm/s |  | 88% | 
40 | CC1=C(C(=O)Nc2cc(C(=O)O)ccn2)C(c2ccccc2Cl)N=C(Nc2nc3c(Cl)cccc3o2)N1 (stereo not drawn) | > 30 min | 13.7 µM |  | 5.8 µM | < 1 µg/mL |  |  |  | < 1.3 ×10⁻⁶ cm/s |  | 85% | 
41 | CC1=C(C(=O)Nc2cc(C(=O)O)ccn2)C(c2ccccc2Cl)N=C(Nc2nc3cc(N)ccc3o2)N1 (stereo not drawn) | > 30 min | 21.7 µM |  | 5.5 µM | > 76 µg/mL |  |  |  | 10 ×10⁻⁶ cm/s |  | 100% | 
